Test results taken from ChEMBL document CHEMBL4831528, “Discovery of Novel Pterostilbene-Based Derivatives as Potent and Orally Active NLRP3 Inflammasome Inhibitors with Inflammatory Activity for Colitis” (J Med Chem, 2021).
Activity calls are given as the source filed them. The rule behind the calls is not given here.

How the values were obtained:
[1] = biological target: T1, NACHT, LRR and PYD domains-containing protein 3 (Homo sapiens, UniProt Q96P20); assay: Inhibition of recombinant human NLRP3 preincubated for 15 mins followed by ATP addition by ADP-Glo kinase assay
T1 sequence (Q96P20 whole entry, the tested form may be a part): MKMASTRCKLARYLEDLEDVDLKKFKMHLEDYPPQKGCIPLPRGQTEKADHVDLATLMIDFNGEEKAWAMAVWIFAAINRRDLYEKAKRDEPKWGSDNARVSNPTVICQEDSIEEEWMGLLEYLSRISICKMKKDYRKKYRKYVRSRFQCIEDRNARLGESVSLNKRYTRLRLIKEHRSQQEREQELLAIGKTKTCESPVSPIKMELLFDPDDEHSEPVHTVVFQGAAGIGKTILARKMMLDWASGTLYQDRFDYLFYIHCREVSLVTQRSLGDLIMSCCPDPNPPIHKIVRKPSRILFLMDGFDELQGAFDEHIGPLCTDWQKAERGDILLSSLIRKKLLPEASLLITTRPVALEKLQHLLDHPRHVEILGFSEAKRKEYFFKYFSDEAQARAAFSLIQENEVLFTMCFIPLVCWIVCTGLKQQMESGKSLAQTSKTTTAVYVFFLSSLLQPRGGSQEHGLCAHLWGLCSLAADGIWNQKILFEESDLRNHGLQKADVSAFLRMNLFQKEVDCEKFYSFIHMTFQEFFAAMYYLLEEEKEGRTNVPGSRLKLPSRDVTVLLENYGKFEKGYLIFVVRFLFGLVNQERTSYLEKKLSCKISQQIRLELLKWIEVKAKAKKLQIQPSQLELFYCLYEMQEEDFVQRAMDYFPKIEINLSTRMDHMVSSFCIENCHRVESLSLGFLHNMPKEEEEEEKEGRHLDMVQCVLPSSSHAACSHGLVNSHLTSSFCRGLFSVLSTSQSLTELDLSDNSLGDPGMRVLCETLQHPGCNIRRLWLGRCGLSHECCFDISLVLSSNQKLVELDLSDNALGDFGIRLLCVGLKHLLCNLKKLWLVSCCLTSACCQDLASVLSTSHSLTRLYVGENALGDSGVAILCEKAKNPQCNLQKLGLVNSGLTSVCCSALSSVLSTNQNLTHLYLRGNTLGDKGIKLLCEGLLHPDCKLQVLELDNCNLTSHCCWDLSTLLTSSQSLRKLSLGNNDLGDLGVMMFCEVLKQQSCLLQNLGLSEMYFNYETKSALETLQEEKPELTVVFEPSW

[2] = biological target: NACHT, LRR and PYD domains-containing protein 3 (Mus musculus) (UniProt Q8R4B8); assay: Inhibition of NLRP3 inflammasome activation in LPS-stimulated mouse bone marrow-derived macrophages assessed as reduction in pro IL-1beta in cell lysate at 2 uM preincubated for 30 mins followed by MSU addition and measured after 0.5 hrs by Western blot analysis; format: subcellular; conditions: Macrophage, time 60.0 min
Chain of NACHT, LRR and PYD domains-containing protein 3 (Mus musculus) (Q8R4B8 whole entry, the tested form may be a part): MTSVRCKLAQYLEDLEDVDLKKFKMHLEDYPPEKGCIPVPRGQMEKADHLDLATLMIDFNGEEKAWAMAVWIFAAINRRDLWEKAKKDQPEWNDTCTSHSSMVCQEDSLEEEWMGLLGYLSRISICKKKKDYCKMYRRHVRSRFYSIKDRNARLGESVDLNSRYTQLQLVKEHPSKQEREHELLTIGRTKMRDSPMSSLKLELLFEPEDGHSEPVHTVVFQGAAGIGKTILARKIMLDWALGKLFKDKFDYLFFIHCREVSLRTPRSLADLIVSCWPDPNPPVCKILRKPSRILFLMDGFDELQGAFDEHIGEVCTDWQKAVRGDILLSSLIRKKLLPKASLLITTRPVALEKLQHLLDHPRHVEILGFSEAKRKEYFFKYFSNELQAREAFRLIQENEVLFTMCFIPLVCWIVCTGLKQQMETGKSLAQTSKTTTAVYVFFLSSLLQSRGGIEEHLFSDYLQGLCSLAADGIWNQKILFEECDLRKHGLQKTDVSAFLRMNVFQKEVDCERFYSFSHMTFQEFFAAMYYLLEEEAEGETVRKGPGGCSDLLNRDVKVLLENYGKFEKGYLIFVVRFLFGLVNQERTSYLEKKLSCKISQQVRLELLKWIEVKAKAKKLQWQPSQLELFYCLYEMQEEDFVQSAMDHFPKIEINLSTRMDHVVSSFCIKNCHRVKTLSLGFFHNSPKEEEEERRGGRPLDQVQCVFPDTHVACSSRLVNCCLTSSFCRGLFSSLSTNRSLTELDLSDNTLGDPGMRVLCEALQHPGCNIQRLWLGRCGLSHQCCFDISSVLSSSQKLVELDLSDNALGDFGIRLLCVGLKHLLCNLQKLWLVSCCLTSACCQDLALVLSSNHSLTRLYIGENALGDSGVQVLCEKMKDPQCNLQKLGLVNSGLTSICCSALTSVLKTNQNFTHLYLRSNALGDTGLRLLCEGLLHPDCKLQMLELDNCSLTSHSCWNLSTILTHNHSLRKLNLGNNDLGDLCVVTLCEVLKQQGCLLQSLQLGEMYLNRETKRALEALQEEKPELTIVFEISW

[3] = Toxicity in C57BL/6 mouse assessed as weight gain at 20 to 40 mg/kg, ig administered for 28 days; format: organism-based; conditions: in vivo, po, 672 h, dose 20-40 mg/kg, time 28 day
[4] = tested on: Mus musculus; assay: Protection against DSS-induced acute ulcerative colitis in C57BL/6 mouse assessed as reduction in pathological index score at 10 to 20 mg/kg, ig administered for 7 days by Hematoxylin and eosin staining based optical microscopy; format: functional, organism-based; conditions: dose 10-20 mg/kg, time 7.0 day
[5] = tested on: BMDM; assay: Effect on pro-IL1beta expression in LPS-stimulated mouse bone marrow-derived macrophages at 0.5 to 2 uM preincubated for 30 mins followed by nigericin addition and measured after 30 mins by Western blot analysis; format: functional, tissue-based; conditions: dose 0.5-2 µM, time 60.0 min
[6] = biological target: T1, NACHT, LRR and PYD domains-containing protein 3; assay: Binding affinity to His-GFP fused tagged NLRP3 (unknown origin) expressed in HEK293T assessed as thermal stabilization at 10 uM incubated for 30 mins by cellular thermal shift assay; format: cell-based
[7] = tested on: Mus musculus; assay: Downregulation of TNFalpha expression in C57BL/6 mouse model of DSS-induced ulcerative colitis at 10 to 20 mg/kg, ig administered for 7 days by ELISA; format: functional, organism-based; conditions: dose 10-20 mg/kg, time 7.0 day
[8] = biological target: NACHT, LRR and PYD domains-containing protein 3 (Mus musculus) (UniProt Q8R4B8); assay: Inhibition of NLRP3 inflammasome activation in LPS-stimulated mouse bone marrow-derived macrophages assessed as attenuation of ASC dimer at 1 to 4 uM preincubated for 30 mins followed by nigericin addition and measured after 0.5 hrs by Western blot analysis; format: tissue-based; conditions: Macrophage, dose 1-4 µM
[9] = biological target: NACHT, LRR and PYD domains-containing protein 3 (Mus musculus) (UniProt Q8R4B8); assay: Inhibition of NLRP3 inflammasome activation in LPS-stimulated mouse bone marrow-derived macrophages assessed as reduction in IL-1beta secretion at 2 uM preincubated for 30 mins followed by MSU addition and measured after 0.5 hrs by ELISA; format: tissue-based; conditions: Macrophage, time 60.0 min
[10] = Intrinsic clearance in mouse liver microsomes preincubated for 5 mins followed by NADPH addition and measured after 5 to 60 mins by LC-MS/MS analysis; format: ADME, Microsome; conditions: time 5-60 min, read-out: CLH
[11] = tested on: Macrophage; assay: Inhibition of NFkappaB activation in LPS-stimulated mouse bone marrow-derived macrophages assessed as reduction in TNFalpha secretion at 0.5 to 2 uM preincubated for 30 mins followed by nigericin addition and measured after 30 mins by ELISA; format: tissue-based; conditions: dose 0.5-2 µM, time 60.0 min
[12] = biological target: NACHT, LRR and PYD domains-containing protein 3 (Mus musculus) (UniProt Q8R4B8); assay: Inhibition of NLRP3 inflammasome activation in LPS-stimulated mouse bone marrow-derived macrophages assessed as reduction in caspase1 p20 secretion preincubated for 30 mins followed by nigericin addition and measured after 30 mins by Western blot analysis; format: tissue-based; conditions: Macrophage, time 60.0 min
[13] = Intrinsic clearance in human liver microsomes preincubated for 5 mins followed by NADPH addition and measured after 5 to 60 mins by LC-MS/MS analysis; format: ADME, Microsome; conditions: time 5-60 min, read-out: CLH
[14] = biological target: NACHT, LRR and PYD domains-containing protein 3 (Mus musculus) (UniProt Q8R4B8); assay: Inhibition of NLRP3 inflammasome activation in LPS-stimulated mouse bone marrow-derived macrophages assessed as reduction in cell pyrolysis at 5 to 25 uM preincubated for 30 mins followed by nigericin addition and measured after 30 mins by Western blot analysis; format: tissue-based; conditions: Macrophage, dose 5-25 µM, time 60.0 min
[15] = biological target: NACHT, LRR and PYD domains-containing protein 3 (Mus musculus) (UniProt Q8R4B8); assay: Inhibition of NLRP3 inflammasome activation in LPS-stimulated mouse bone marrow-derived macrophages assessed as reduction in activated caspase1 p20 in supernatant at 2 uM preincubated for 30 mins followed by ATP addition and measured after 0.5 hrs by Western blot analysis; format: tissue-based; conditions: Macrophage, time 60.0 min
[16] = Toxicity in C57BL/6 mouse assessed as induction of anorexia at 20 to 40 mg/kg, ig administered for 28 days; format: organism-based; conditions: in vivo, po, 672 h, dose 20-40 mg/kg, time 28 day
[17] = Toxicity in C57BL/6 mouse assessed as effect on spleen at 20 to 40 mg/kg, ig administered for 28 days; format: organism-based; conditions: in vivo, po, 672 h, dose 20-40 mg/kg, time 28 day
[18] = Clearance in mouse at 2 mg/kg, iv measured after 0.08 to 24 hrs by LC-MS/MS analysis; format: ADME, organism-based; conditions: in vivo, time 0.08-24 hrs
[19] = tested on: Mus musculus; assay: Anti-inflammatory activity in C57BL/6 mouse DSS-induced acute ulcerative colitis assessed as reduction in disease index at 10 to 20 mg/kg, ig administered for 7 days; format: functional, organism-based; conditions: dose 10-20 mg/kg, time 7.0 day
[20] = Toxicity in C57BL/6 mouse assessed as effect on lung at 20 to 40 mg/kg, ig administered for 28 days; format: organism-based; conditions: in vivo, po, 672 h, dose 20-40 mg/kg, time 28 day
[21] = biological target: NACHT, LRR and PYD domains-containing protein 3 (Mus musculus) (UniProt Q8R4B8); assay: Inhibition of NLRP3 inflammasome activation in LPS-stimulated mouse bone marrow-derived macrophages assessed as attenuation of ASC monomer at 1 to 4 uM preincubated for 30 mins followed by nigericin addition and measured after 0.5 hrs by Western blot analysis; format: tissue-based; conditions: Macrophage, dose 1-4 µM, time 60.0 min
[22] = biological target: NACHT, LRR and PYD domains-containing protein 3 (Mus musculus) (UniProt Q8R4B8); assay: Inhibition of NLRP3 inflammasome activation in LPS-stimulated mouse bone marrow-derived macrophages assessed as reduction in cleaved IL-1beta secretion preincubated for 30 mins followed by nigericin addition and measured after 30 mins by Western blot analysis; format: tissue-based; conditions: Macrophage, time 60.0 min
[23] = tested on: Mus musculus; assay: Protection against DSS-induced acute ulcerative colitis in C57BL/6 mouse assessed as reduction in body weight at 10 to 20 mg/kg, ig administered for 7 days; format: functional, organism-based; conditions: dose 10-20 mg/kg, time 7.0 day
[24] = Toxicity in C57BL/6 mouse assessed as induction of lethargy at 20 to 40 mg/kg, ig administered for 28 days; format: organism-based; conditions: in vivo, po, 672 h, dose 20-40 mg/kg, time 28 day
[25] = Toxicity in C57BL/6 mouse assessed as overactivity at 20 to 40 mg/kg, ig administered for 28 days; format: organism-based; conditions: in vivo, po, 672 h, dose 20-40 mg/kg, time 28 day
[26] = biological target: NACHT, LRR and PYD domains-containing protein 3 (Mus musculus) (UniProt Q8R4B8); assay: Inhibition of NLRP3 inflammasome activation in LPS-stimulated mouse bone marrow-derived macrophages assessed as reduction in IL-1beta secretion at 1 to 4 uM preincubated for 30 mins followed by nigericin addition and measured after 0.5 hrs by Western blot analysis; format: tissue-based; conditions: Macrophage, dose 1-4 µM
[27] = Tmax in mouse at 20 mg/kg, po measured up to 24 hrs by LC-MS/MS analysis; format: ADME, organism-based; conditions: in vivo
[28] = Toxicity in C57BL/6 mouse assessed as loose fur at 20 to 40 mg/kg, ig administered for 28 days; format: organism-based; conditions: in vivo, po, 672 h, dose 20-40 mg/kg, time 28 day
[29] = biological target: NACHT, LRR and PYD domains-containing protein 3 (Mus musculus) (UniProt Q8R4B8); assay: Binding affinity to NLRP3 in mouse J774A1 cells assessed as thermal stabilization at 50 uM incubated for 30 mins by cellular thermal shift assay; format: cell-based; conditions: J774.A1
[30] = tested on: Mus musculus; assay: Protection against DSS-induced acute ulcerative colitis in C57BL/6 mouse assessed as reduction in bloody stool at 10 to 20 mg/kg, ig administered for 7 days; format: functional, organism-based; conditions: dose 10-20 mg/kg, time 7.0 day
[31] = tested on: Mus musculus; assay: Protection against DSS-induced acute ulcerative colitis in C57BL/6 mouse assessed as reduction in adhesion of colon at 10 to 20 mg/kg, ig administered for 7 days; format: functional, organism-based; conditions: dose 10-20 mg/kg, time 7.0 day
[32] = tested on: BMDM; assay: Effect on NEK7 expression in LPS-stimulated mouse bone marrow-derived macrophages at 0.5 to 2 uM preincubated for 30 mins followed by nigericin addition and measured after 30 mins by Western blot analysis; format: functional, tissue-based; conditions: dose 0.5-2 µM, time 60.0 min

In the case of COc1cc(/C=C/c2ccc(NC(=O)C3CC3)cc2)c(/C=C/[N+](=O)[O-])c(OC)c1, the inhibition [1] is reported as “Dose-Dependent Effect”, the inhibition [2] is reported as “Active” and the Activity [3] is reported as “Non-Toxic”. The Activity [4] was “Active”, the Activity [5] was “inactive” and the Activity [6] was “Active”. The Activity [7] was “Active”, the inhibition [8] was “Active” and the inhibition [9] was “Active”. For the same compound, the microsomal CLint [10] was 32 µL/min/mg, the inhibition [11] was “inactive” and the inhibition [12] was “Dose-Dependent Effect”. For the same compound, the microsomal CLint [13] was 20.3 µL/min/mg, the inhibition [14] was “Active” and the inhibition [15] was “Active”. For the same compound, the Activity [16] was “Non-Toxic”, the Activity [17] was “Non-Toxic” and the clearance [18] was 87.5 mL/min/kg. For the same compound, the Activity [19] was “Active”, the Activity [20] was “Non-Toxic” and the inhibition [21] was “Active”. The inhibition [22] was “Dose-Dependent Effect”, the Activity [23] was “Active” and the Activity [24] was “Non-Toxic”. The Activity [25] was “Non-Toxic”, the inhibition [26] was “Active” and the Tmax [27] was 2.33 h. For the same compound, the Activity [28] was “Non-Toxic”, the Activity [29] was “Active” and the Activity [30] was “Active”. The Activity [31] was “Active” and the Activity [32] was “inactive”.
